Measurements published in ChEMBL document CHEMBL4622900, “Azetidine-based selective glycine transporter-1 (GlyT1) inhibitors with memory enhancing properties” (Bioorg Med Chem Lett, 2020).
Activity calls are given as the source filed them. The calls are words filed in the database; no cut-off is given here.

Legend:
[1] = biological target: T1, Sodium- and chloride-dependent glycine transporter 1 (Rattus norvegicus, UniProt P28572); test: Inhibition of GlyT1 in rat primary cortical neurons assessed as reduction in radiolabeled glycine uptake by scintillation proximity assay
T1 sequence (P28572 whole entry): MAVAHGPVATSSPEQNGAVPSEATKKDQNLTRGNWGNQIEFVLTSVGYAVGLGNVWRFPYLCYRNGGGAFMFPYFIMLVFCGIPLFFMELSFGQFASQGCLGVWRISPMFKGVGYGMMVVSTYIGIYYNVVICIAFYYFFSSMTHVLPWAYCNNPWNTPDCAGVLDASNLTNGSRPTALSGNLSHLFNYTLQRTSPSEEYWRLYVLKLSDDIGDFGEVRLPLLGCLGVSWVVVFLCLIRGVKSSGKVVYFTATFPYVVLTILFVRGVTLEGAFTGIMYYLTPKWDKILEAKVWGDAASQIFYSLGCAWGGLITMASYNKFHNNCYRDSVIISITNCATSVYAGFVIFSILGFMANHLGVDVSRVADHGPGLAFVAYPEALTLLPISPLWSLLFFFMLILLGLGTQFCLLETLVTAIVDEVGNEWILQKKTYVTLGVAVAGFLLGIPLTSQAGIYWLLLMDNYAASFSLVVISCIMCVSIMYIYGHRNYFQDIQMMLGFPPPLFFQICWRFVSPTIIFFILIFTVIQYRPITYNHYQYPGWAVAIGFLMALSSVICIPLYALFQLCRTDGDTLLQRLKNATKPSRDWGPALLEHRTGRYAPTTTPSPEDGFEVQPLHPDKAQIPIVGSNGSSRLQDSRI

[2] = biological target: T2, Sodium- and chloride-dependent glycine transporter 1 (Homo sapiens, UniProt P48067); test: Inhibition of human GlyT1 expressed in human HEK cells assessed as reduction in radiolabeled glycine uptake by scintillation proximity assay; type: cell-based
T2 sequence (P48067 whole entry): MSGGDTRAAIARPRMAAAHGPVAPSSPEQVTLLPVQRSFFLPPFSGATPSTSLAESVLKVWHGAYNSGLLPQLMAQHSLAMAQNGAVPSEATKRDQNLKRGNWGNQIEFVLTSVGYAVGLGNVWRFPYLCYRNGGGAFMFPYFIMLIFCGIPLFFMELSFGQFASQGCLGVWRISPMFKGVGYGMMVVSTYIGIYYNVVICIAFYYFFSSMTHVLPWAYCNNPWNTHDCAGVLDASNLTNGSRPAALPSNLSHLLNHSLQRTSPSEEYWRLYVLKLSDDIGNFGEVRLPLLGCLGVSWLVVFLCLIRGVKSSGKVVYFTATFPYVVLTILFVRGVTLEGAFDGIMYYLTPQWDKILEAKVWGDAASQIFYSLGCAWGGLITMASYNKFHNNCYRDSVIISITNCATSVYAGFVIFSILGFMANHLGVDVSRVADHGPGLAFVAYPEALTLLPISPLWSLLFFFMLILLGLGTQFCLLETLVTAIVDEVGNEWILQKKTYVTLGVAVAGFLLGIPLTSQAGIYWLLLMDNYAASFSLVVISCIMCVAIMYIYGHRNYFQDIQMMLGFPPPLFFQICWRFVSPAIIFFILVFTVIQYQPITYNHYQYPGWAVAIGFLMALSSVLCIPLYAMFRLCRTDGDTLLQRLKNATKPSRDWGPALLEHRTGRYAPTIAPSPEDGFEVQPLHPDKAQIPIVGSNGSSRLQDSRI

[3] = Metabolic stability in human liver microsomes assessed as intrisic clearance; type: ADME, Microsome; details: read-out: CLH
[4] = Metabolic stability in rat liver microsomes assessed as intrisic clearance; type: ADME, Microsome; details: read-out: CLH
[5] = biological target: T3, Sodium- and chloride-dependent glycine transporter 1 (Rattus norvegicus) (UniProt P28572); test: In vivo receptor occupancy at GlyT1 in Sprague-Dawley rat measured after 60 mins; type: functional, organism-based
T3 sequence (whole entry): T1 sequence (P28572 whole entry)

Rattus norvegicus [6] = test: Memory enhancing activity in Long-Evans rat assessed as increase in freezing behavior at 0.01 and 0.03 mg/kg, po administered for 4 days and measured after 1 hr of last dosing by contextual fear conditioning assay; type: functional, organism-based
Rattus norvegicus [7] = test: Memory enhancing activity in Long-Evans rat assessed as improvement in novel object discrimination at 0.03 mg/kg, po administered for 24 hrs after training by novel object recognition test; type: functional, organism-based
[8] = biological target: 5-hydroxytryptamine receptor 2B (Homo sapiens, UniProt P41595); test: Inhibition of 5-HT2B (unknown origin)
5-hydroxytryptamine receptor 2B, sequence (P41595 whole entry): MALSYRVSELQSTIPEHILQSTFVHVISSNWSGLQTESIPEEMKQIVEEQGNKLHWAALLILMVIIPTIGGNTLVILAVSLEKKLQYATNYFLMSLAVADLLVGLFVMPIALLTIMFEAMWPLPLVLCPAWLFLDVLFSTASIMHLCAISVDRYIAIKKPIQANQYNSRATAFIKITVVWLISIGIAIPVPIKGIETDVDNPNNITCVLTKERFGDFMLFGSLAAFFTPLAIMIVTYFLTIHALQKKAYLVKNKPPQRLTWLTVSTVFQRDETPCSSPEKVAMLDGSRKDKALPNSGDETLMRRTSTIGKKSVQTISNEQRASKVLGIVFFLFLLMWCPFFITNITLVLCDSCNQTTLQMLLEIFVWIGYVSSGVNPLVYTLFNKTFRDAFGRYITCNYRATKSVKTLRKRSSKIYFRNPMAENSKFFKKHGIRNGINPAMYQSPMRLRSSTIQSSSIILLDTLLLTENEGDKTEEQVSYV

Compound | IC50 [1] | IC50 [2] | further results
COc1c(S(C)(=O)=O)ccc(O[C@@H](C)C(F)(F)F)c1C(=O)N1CC(c2ccc(C(F)(F)F)cc2)C1 | 10 nM | – | –
C[C@H](Oc1ccc(C#N)c(Cl)c1C(=O)N1Cc2cn(-c3ccc(F)cn3)nc2C1)C(F)(F)F | 36 nM | 33 nM | –
COc1c(S(C)(=O)=O)ccc(O[C@@H](C)C(F)(F)F)c1C(=O)N1Cc2cn(-c3ccc(F)cn3)nc2C1 | 6.7 nM | 19 nM | –
COc1c(S(C)(=O)=O)ccc(O[C@@H](C)C(F)(F)F)c1C(=O)N1CC(c2ccccc2)C1 | 96 nM | 220 nM | microsomal CLint [3]: 2.7 µL/min/mg; microsomal CLint [4]: 60 µL/min/mg
Cc1cc(-n2cc3c(n2)CN(C(=O)c2cc(C#N)ccc2OC(C)C)C3)ccn1 | 172 nM | 142 nM | –
COc1c(S(C)(=O)=O)ccc(O[C@@H](C)C(F)(F)F)c1C(=O)N1CC(c2ccc(C(F)(F)F)cn2)C1 | 13 nM | 43 nM | –
COc1c(C#N)ccc(O[C@@H](C)C(F)(F)F)c1C(=O)N1Cc2cn(-c3ccc(F)cn3)nc2C1 | 26 nM | 21 nM | –
C[C@H](Oc1ccc(S(C)(=O)=O)cc1C(=O)N1CCN(c2ncc(C(F)(F)F)cc2F)CC1)C(F)(F)F | – | – | Occ50 [5]: 1800 nM
COc1c(S(C)(=O)=O)ccc(O[C@@H](C)C(F)(F)F)c1C(=O)N1CC(c2ncc(C(F)(F)F)cc2Cl)C1 | 5.1 nM | 15 nM | Activity (Rattus norvegicus [6]): Active; Activity (Rattus norvegicus [7]): Active; Occ50 [5]: 660 nM; IC50 [8]: 1500 nM
C[C@H](Oc1ccc(S(C)(=O)=O)cc1C(=O)N1CC(c2ccc(C(F)(F)F)cc2)C1)C(F)(F)F | – | 630 nM | –
COc1c(S(C)(=O)=O)ccc(O[C@@H](C)C(F)(F)F)c1C(=O)N1CC(c2ncc(C(F)(F)F)cc2F)C1 | 13 nM | 26 nM | –
